The values that follow come from publication PMC9034178, “Self-assemblies of pluronic micelles in partitioning of anticancer drugs and effectiveness of this system towards target protein” (RSC Advances, 2021).

This assay addresses T1, bovine serum albumin (BSA) (Bos taurus, UniProt P02769).
T1 construct: gene ALB
The assay is described as follows: tryptophan fluorescence quenching (ex […] nm), double-log plot. The format is binding. Conditions: no pluronic; pH 7.4, 298.15 K.

T1 sequence (P02769 25-607): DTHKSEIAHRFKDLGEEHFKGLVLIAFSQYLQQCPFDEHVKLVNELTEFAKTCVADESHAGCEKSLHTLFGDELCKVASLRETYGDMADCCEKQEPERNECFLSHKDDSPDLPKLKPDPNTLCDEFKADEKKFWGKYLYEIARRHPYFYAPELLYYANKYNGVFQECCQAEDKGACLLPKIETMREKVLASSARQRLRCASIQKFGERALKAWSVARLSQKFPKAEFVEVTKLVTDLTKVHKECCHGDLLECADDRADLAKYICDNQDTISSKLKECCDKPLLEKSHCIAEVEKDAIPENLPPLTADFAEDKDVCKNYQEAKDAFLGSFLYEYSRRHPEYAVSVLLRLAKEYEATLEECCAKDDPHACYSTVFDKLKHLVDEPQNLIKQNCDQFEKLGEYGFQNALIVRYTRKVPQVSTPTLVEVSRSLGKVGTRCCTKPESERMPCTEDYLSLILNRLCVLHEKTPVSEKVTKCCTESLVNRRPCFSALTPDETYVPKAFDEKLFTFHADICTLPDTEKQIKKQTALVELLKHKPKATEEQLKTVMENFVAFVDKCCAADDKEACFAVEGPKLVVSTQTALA

Take `Nc1ccn([C@@H]2O[C@H](CO)[C@@H](O)[C@@H]2O)c(=O)n1` [cytarabine]: the “K a (M^-1)” value is recorded as “(1.1 ± 0.1) × 10^2 M^-1”.
As for `Nc1ccn([C@@H]2O[C@H](CO)[C@@H](O)C2(F)F)c(=O)n1` [gemcitabine], the entry is “(2.4 ± 0.2) × 10^2 M^-1”.
As for `NC(=O)NO` [hydroxyurea], the entry is “(2.3 ± 0.4) × 10^2 M^-1”.
